# Test system: adult patients (aged 18-64 years) with TRD
# Assay: Maximum time to onset of clinician-reported adverse events by AE week 1/week 4 occurrence (Tables 5-16; modal dose 56, modal dose 84, Total)
# Format: in vivo, human
# Settings: Based on Week 4
# Protocol: Patients were monitored for >90 minutes after ESK administration at each treatment session, after which time they could leave the clinical site at the clinician's discretion. AEs were monitored and reported, and safety assessments, including clinical laboratory tests and physical examinations, were conducted throughout the study. Clinician-reported AEs were categorized as mild, moderate, or severe based on clinical judgement (Table 1).
# Since flexible dosing (ESK 56 or 84 mg) was permitted in the studies and an individual patient's doses could change within dosing timeframes, patients were stratified by modal dose during the respective periods.
# The time to onset of the adverse events experienced by patients in Example 2 was analyzed. Tables 5-11 include the summary of specific adverse events by their respective categorized maximum time to Onset (i) across sessions 3-8 during Induction Phase by AE week 1 occurrence (Table 5), (ii) during Optimization Phase by AE week 1 occurrence (Table 6), (iii) during Optimization Phase by AE week 4 occurrence (Table 7), (iv) during Month 3-6 of Maintenance Phase by AE week 1 occurrence (Table 8), (v) Month 3-6 of Maintenance Phase by AE week 4 occurrence (Table 9), (vi) Month 6-12 of Maintenance Phase by AE week 1 occurrence (Table 10), and (vii) during Month 6-12 of Maintenance Phase by AE week 4 (Table 11).
# Tables 12-16 include the incidences of clinician-reported blood pressure (Table 12), clinician-reported dissociation (Table 13), dizziness (Table 14), sedation (Table 15), and vertigo (Table 16) spanning week 1 to month 12 using the data of Example 2.
smiles,measurement,setting,value
"CN[C@]1(c2ccccc2Cl)CCCCC1=O [esketamine, (S)-2-(2-chlorophenyl)-2-(methylamino)cyclohexanone]",Blood Pressure (clinician): n >60 m,"None, Month 3-6",1
same,Blood Pressure (clinician): 31-60 m,"None, Month 6-12",6
same,Blood Pressure (clinician): 61-90 m,"None, Month 6-12",1
same,Blood Pressure (clinician): % >60 m,"None, Month 6-12",12.5%
same,Blood Pressure (clinician): TOTAL,"None, Month 6-12",8
same,Blood Pressure (clinician): n >60 m,"None, Month 6-12",1
same,Blood Pressure (clinician): 31-60 m,"Once, Month 2",9
same,Blood Pressure (clinician): % >60 m,"Once, Month 2",0%
same,Blood Pressure (clinician): TOTAL,"Once, Month 2",9
same,Blood Pressure (clinician): n >60 m,"Once, Month 2",0
same,Blood Pressure (clinician): 31-60 m,"Once, Month 3-6",5
same,Blood Pressure (clinician): % >60 m,"Once, Month 3-6",0%
same,Blood Pressure (clinician): TOTAL,"Once, Month 3-6",5
same,Blood Pressure (clinician): n >60 m,"Once, Month 3-6",0
same,Blood Pressure (clinician): 31-60 m,"Once, Month 6-12",3
same,Blood Pressure (clinician): % >60 m,"Once, Month 6-12",0%
same,Blood Pressure (clinician): TOTAL,"Once, Month 6-12",3
same,Blood Pressure (clinician): n >60 m,"Once, Month 6-12",0
same,Blood Pressure (clinician): 31-60 m,"Twice, Month 2",9
same,Blood Pressure (clinician): % >60 m,"Twice, Month 2",0%
same,Blood Pressure (clinician): TOTAL,"Twice, Month 2",9
same,Blood Pressure (clinician): n >60 m,"Twice, Month 2",0
same,Blood Pressure (clinician): 31-60 m,"Twice, Month 3-6",2
same,Blood Pressure (clinician): 61-90 m,"Twice, Month 3-6",1
same,Blood Pressure (clinician): % >60 m,"Twice, Month 3-6",33.3%
same,Blood Pressure (clinician): TOTAL,"Twice, Month 3-6",3
same,Blood Pressure (clinician): n >60 m,"Twice, Month 3-6",1
same,Blood Pressure (clinician): 31-60 m,"Twice, Month 6-12",2
same,Blood Pressure (clinician): % >60 m,"Twice, Month 6-12",0%
same,Blood Pressure (clinician): TOTAL,"Twice, Month 6-12",2
same,Blood Pressure (clinician): n >60 m,"Twice, Month 6-12",0
same,"Dissociation (clinician), % >60 m","incidence None, Month 2",0%
same,"Dizziness, % >60 m","incidence None, Month 2",8.6%
same,"Sedation, % >60 m","incidence None, Month 2",0%
same,"Vertigo, % >60 m","incidence None, Month 2",12%
same,"Dissociation (clinician), % >60 m","incidence None, Month 3-6",2.6%
same,"Dizziness, % >60 m","incidence None, Month 3-6",2.1%
same,"Sedation, % >60 m","incidence None, Month 3-6",14.3%
same,"Vertigo, % >60 m","incidence None, Month 3-6",13.6%
same,"Dissociation (clinician), % >60 m","incidence None, Month 6-12",4.2%
same,"Dizziness, % >60 m","incidence None, Month 6-12",0%
same,"Sedation, % >60 m","incidence None, Month 6-12",0%
same,"Vertigo, % >60 m","incidence None, Month 6-12",0%
same,"Dissociation (clinician), % >60 m","incidence Once, Month 2",4.8%
same,"Dizziness, % >60 m","incidence Once, Month 2",3.7%
same,"Sedation, % >60 m","incidence Once, Month 2",0%
same,"Vertigo, % >60 m","incidence Once, Month 2",4.3%
same,"Dissociation (clinician), % >60 m","incidence Once, Month 3-6",6.7%
same,"Dizziness, % >60 m","incidence Once, Month 3-6",0%
same,"Sedation, % >60 m","incidence Once, Month 3-6",0%
same,"Vertigo, % >60 m","incidence Once, Month 3-6",0%
same,"Dissociation (clinician), % >60 m","incidence Once, Month 6-12",0%
same,"Dizziness, % >60 m","incidence Once, Month 6-12",0%
same,"Sedation, % >60 m","incidence Once, Month 6-12",0%
same,"Vertigo, % >60 m","incidence Once, Month 6-12",25%
same,"Dissociation (clinician), % >60 m","incidence Twice, Month 2",0%
same,"Dizziness, % >60 m","incidence Twice, Month 2",3.8%
same,"Sedation, % >60 m","incidence Twice, Month 2",0%
same,"Vertigo, % >60 m","incidence Twice, Month 2",0%
